US7741124B2, “Detection procedures for fibrinogen and/or fibrinogen derivatives” (priority 2003, dated 2010)

Columns and labels:
Assay type in all cases: biochemical
thrombin [1] = molecular target: T1, thrombin (Bos taurus, UniProt P00735); assay: Inhibitory time point 50% (ITP50) of 10 IU/ml heparin-thrombin interaction; conditions: 10 IU/ml final heparin
T1 construct: 100 μl 200 mIU/ml thrombin in 6% BSA-PBS (without Polybrene®)
Method: 50 μl P-Pool were incubated with 100 μl 200 miU/ml thrombin in 6% BSA-PBS (without Polybrene®). At 0 min (prior to thrombin addition) and 0.5-11 min reaction time (at RT) 10 μl 160 IU/ml heparin in 6% BSA-PBS was added (final heparin conc. in plasma+thrombin reagent=10 IU/ml; this heparin conc. increased the absorbance by 20 mA; all test results were corrected by this heparin induced turbidity increase). The turbidity increase at 405 nm was determined immediately after each heparin addition step and as a function of incubation time.
To determine the heparin addition time point (at RT) that is needed to decrease the 5 min, 10 min, 15 min or 20 min turbidity increase by 50% (inhibitory time point 50%=ITP), 50 μl P-Pool were incubated with 100 μl 200 mIU/ml thrombin in 6% BSA-PBS (without Polybrene®). After 0 s (prior to thrombin addition) and 10-140 s (in 10 s intervals) 10 μl 160 IU/ml heparin in 6% BSA-PBS were added. The turbidity increase at 405 nm as a function of incubation time (3-20 min) was determined.

thrombin [2] = molecular target: T1, thrombin; assay: Inhibitory concentration 50% (IC50) of heparin against thrombin, FIFTA turbidity without Polybrene; conditions: FIFTA system without Polybrene
Method: 50 μl 100% Pool were added to 10 μl 0-160 IU/ml heparin. 100 μl 200 mIU/ml thrombin in 6% BSA-PBS (without Polybrene®) were added and the increase in absorbance at 405 nm was followed.

fibrinogen [3] = assay: FIATA (vancomycin reactivity) of chloramine-T oxidized / EDTA-supplemented plasma; conditions: EDTA-plasmas oxidized at 10-20 mM chloramine-T
Method: To 25 μl plasma 50 μl PBS are added and the absorbance (405 nm) is determined (base value). Then 50 μl 4.4 mM vancomycin in PBS are added. The absorbance at 405 nm is determined after 2 min, if the reaction is performed at room temperature (23° C.). If the reaction is performed at 37° C., the second value is determined after 1 min. A microtiterplate reader (Milenia, DPC, Los Angeles, USA) is used. The increase in absorption (ΔA) is determined and the results are standardized against a pooled plasma of known, preferably of 100% of norm, fibrinogen-concentration, and against 0.9% NaCl (zero-value of turbidity) (Table 2).
(§1) 25 μl P-Pool or P-Pool supplemented with 8.6 mM (3.2 g/l) EDTA were incubated with 25 μl 0-89 mM chloramine-T® in PBS for 60 min at RT. Then the FIATA and the FIFTA were performed. For the FIATA, 25 μl PBS were added and the absorbance at 405 nm was determined (base value). 50 μl 4.4 mM vancomycin in PBS were added and after 1 min (RT) the absorbance at 405 nm was determined again (Table 1). […] 100% control=P-Pool without oxidant.
(§2) 25 μl P-Pool was incubated with 25 μl PBS or with 25 μl 2 mM CT in PBS. After 60 min RT, 25 μl 0-172 mM EDTA in PBS was added. After 5 min RT the FIATA and the FIFTA were performed as indicated in 2.7.

fibrinogen [4] = molecular target: T2, fibrinogen (Homo sapiens, UniProt P02671+P02675+P02679); assay: FIFTA of chloramine-T oxidized / EDTA-supplemented plasma; conditions: 60 min RT, P-Pool and EDTA supplemented P-Pool; read-out: chloramine-T concentration that inactivates 50% of fibrinogen in the FIFTA
T2 construct: pooled patient plasma (P-Pool, n=32 single plasmas); from tissue; host or cells: pooled citrated patient plasma (P-Pool, Fbgen-Pool-Plasma)
T2 sequence (P02671 20-644 isoform P02671-2 limits assumed): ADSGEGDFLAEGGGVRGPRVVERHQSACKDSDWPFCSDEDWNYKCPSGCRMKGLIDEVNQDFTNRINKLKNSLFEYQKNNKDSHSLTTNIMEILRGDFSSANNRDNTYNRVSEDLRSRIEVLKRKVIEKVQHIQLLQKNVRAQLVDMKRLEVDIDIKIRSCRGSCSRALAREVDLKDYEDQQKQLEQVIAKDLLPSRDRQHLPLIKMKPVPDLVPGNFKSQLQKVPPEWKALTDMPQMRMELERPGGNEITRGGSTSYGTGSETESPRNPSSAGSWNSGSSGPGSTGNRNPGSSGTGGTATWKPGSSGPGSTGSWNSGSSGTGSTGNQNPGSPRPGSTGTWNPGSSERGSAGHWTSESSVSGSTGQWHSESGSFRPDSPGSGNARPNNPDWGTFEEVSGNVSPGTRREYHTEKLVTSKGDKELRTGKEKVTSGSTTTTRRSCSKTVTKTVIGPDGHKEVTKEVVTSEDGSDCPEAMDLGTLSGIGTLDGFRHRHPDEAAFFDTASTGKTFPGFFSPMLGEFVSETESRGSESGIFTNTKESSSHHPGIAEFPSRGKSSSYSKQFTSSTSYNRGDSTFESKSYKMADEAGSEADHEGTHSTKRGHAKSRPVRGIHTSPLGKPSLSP
T2 sequence (P02675 31-491): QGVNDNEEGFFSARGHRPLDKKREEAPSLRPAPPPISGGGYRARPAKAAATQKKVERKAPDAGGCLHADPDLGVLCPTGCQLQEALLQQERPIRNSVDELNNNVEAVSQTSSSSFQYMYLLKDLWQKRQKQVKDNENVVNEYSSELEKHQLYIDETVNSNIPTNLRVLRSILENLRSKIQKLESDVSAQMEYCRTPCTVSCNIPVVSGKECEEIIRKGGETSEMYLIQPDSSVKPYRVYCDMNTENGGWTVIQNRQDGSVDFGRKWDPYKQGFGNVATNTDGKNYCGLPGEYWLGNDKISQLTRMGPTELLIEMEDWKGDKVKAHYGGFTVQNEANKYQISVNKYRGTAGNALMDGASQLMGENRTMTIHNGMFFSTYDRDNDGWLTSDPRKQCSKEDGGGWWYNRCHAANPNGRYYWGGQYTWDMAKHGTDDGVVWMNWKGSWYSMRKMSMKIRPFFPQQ
T2 sequence (P02679 27-437 isoform P02679-2 limits assumed): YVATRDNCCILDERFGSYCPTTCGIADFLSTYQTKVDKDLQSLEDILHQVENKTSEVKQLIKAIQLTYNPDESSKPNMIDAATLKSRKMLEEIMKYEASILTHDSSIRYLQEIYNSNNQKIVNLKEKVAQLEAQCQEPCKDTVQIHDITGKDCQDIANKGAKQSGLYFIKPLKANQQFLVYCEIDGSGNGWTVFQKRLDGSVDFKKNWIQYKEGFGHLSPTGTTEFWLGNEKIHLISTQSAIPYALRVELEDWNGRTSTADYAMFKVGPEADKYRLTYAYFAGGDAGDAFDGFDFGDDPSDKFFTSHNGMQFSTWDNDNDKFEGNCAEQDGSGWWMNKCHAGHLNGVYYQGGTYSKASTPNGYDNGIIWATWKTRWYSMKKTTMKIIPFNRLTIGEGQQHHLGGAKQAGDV
Method: The absorption at 405 nm is immediately measured (base value) and exactly after 5 min, if the reaction is performed at room temperature (23° C.). If the reaction is performed at 37° C., the second value is measured after 2 min. A microtiterplate reader (Milenia, DPC, Los Angeles, USA) is used. The increase in absorption (ΔA) is determined and the results are standardized against a pooled plasma of known, preferably of 100% of norm, fibrinogen-activity (Table 1).
as §1, §2

[5] = molecular target: T3, fibrinogen in human plasma (Homo sapiens, UniProt P02671+P02675+P02679); assay: Inactivation of fibrinogen by vancomycin or chloramine-T (FIFTA read-out); conditions: 15 min 37° C. incubation in plasma, then FIFTA; read-out: IC50 against plasmatic fibrinogen
T3 construct: 200 μl of 256% of norm active fibrinogen in P-Pool; from tissue; host or cells: pooled citrated human patient plasma (P-Pool / Fbgen-Pool)
T3 sequence (P02671 20-629 isoform P02671-2 limits assumed): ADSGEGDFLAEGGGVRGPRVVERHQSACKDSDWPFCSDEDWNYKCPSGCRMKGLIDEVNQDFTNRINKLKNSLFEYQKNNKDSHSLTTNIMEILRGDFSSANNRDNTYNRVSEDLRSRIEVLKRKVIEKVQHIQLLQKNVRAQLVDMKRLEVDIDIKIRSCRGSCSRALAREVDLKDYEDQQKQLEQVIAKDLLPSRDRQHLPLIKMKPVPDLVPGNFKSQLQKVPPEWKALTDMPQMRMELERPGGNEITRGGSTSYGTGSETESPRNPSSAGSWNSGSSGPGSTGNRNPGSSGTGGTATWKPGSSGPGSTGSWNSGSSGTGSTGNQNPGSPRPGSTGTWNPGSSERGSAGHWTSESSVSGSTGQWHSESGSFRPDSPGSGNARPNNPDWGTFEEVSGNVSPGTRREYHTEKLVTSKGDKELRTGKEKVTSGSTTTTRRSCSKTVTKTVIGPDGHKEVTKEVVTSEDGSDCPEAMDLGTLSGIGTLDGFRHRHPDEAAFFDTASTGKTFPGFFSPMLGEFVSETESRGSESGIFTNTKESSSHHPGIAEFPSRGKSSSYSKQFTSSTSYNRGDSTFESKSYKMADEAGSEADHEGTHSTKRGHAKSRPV
T3 sequence (P02675 31-491): T2 sequence (P02675 31-491)
T3 sequence (P02679 27-437 isoform P02679-2 limits assumed): T2 sequence (P02679 27-437 isoform P02679-2 limits assumed)
Method: 200 μl of 256% of norm active fibrinogen in P-Pool were incubated with 25 μl 0-100 mM vancomycin or 0-100 mM chloramine-T® in aqua dest. for 15 min (37° C.). 50 μl samples of these reaction mixtures were withdrawn and incubated with 100 μl 200 mIU/ml thrombin, 400 μg/ml Polybrene®, 6% BSA-PBS. The results were standardized by simultaneous analysis of 144% of norm active fibrinogen in P-Pool.

heparin was tested, and the “time window in which heparin can inhibit fibrin generation” value (thrombin [1]; RT) was at most 2 min, the “time point of heparin addition that results into a 50% decrease of ΔA (ITP50)” value (thrombin [1]; ΔA at 5-20 min incubation time (RT)) was “approximately 30 s” and the “heparin concentrations that completely inhibit thrombin” value (thrombin [2]) was at least 0.63 IU/ml.
With `Cc1ccc(S(=O)(=O)[N-]Cl)cc1.[Na+]` [chloramine-T®, chloramine-T] the “increase of reactivity with vancomycin, % of the citrate control value” (fibrinogen [3]) was 40%, the IC50 (fibrinogen [4]) was 2000 µM and the IC50 [5] was about 2000 µM.
